Literature values, collected in patent US20060040003A1, “Dietary supplement for supressing appetite, enhancing and extending satiety, improving glycemic control, and stimulant free” (priority 2004, published 2006).

Biological target: T1, plasma albumin (Homo sapiens, UniProt P02768)
T1 construct: host or cells: blood plasma (circulation)
T1 sequence (P02768 25-609): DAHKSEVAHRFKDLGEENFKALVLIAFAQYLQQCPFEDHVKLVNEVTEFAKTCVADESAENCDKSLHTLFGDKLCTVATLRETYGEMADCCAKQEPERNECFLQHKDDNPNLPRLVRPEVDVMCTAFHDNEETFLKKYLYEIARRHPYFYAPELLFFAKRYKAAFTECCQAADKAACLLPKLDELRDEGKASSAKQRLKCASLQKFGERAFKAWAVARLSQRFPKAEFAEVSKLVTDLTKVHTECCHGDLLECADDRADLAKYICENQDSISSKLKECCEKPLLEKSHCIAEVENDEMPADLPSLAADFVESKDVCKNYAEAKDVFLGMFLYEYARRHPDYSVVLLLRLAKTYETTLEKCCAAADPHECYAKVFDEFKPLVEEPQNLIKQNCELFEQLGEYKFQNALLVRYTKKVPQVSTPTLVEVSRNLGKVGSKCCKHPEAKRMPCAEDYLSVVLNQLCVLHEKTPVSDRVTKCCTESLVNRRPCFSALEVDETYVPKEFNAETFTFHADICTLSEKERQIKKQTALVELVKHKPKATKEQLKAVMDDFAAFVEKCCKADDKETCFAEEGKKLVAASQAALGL

circulating in the blood as free tryptophane: 20%
Compound: N[C@@H](Cc1c[nH]c2ccccc12)C(=O)O [tryptophane]
